Results reported in patent publication US11898167B2, “Reversible stencils for fabricating micro-tissues” (The Regents of the University of California, priority 2014, dated 2024).
Entries after “also recorded” stand apart in the source; their conditions may differ.

Tests used:
Assay type in all cases: cell-based, human
[1] = tested on: micro-muscle heart tissues; assay: Calcium dose response of twitch force of micro-muscles; conditions: increasing extracellular calcium concentrations (2 mM, 6 mM shown)
From the text: Representative micro-muscle heart tissues were generated by seeding small numbers of cardiomyocytes into stencil microwells as described herein. Separate micro-muscles were then contacted with different extracellular calcium concentrations.

MYBPC3−/− micro-tissues = assay: Beat-rate response of MYBPC3 null iPS-CM micro-tissues
Experimental: (§1) The beating rate, maximum contraction velocity, and spatial coordination of beating within micro-tissues was assessed visually, and quantified using image processing software was used, such as the custom block-matching optical flow software, described in a publication that is currently under review (Huebsch 2014). Micro-tissue response to drugs, including verapamil and isoproterenol, was tested using an automated inverted microscope (Zeiss).
To model hypertrophic cardiomyopathy, MYPBC3 was knocked out of wild type iPS.

[2] = tested on: iPS-CM two-dimensional monolayers; assay: Beating of iPS-CM in unpatterned two-dimensional monolayers/cell clusters, drug response
[3] = tested on: iPS-CM micro-tissues harboring the GCaMP6f calcium indicator; assay: Calcium flux (GCaMP6f reporter) in iPS-CM micro-tissues; set-up: dose or concentration left out as unconfirmed; conditions: 1 week and 2 week micro-tissues, paced at 1 Hz; isoproterenol
Experimental: Induced pluripotent stem cells genetically modified to express the GCaMP6f calcium indicator gene product, and then differentiated into cardiomyocytes (iPS-CM). Micro-tissues were made with iPS-CM harboring the GCaMP6f calcium indicator, to allow continuous recording of calcium flux as illustrated in FIG. 8.
FIG. 8D-8E illustrate the functional maturation of iPS-CM-derived micro-tissues (μHT, micro-heart tissues). After 1 or 2 weeks of incubation in the stencil microwells, the micro-tissues were paced at 1 Hz for analysis of inotropy.

[4] = tested on: heterozygous MYPBC3+/− iPS micro-tissues; assay: Beat-rate response of heterozygous MYBPC3 iPS-CM micro-tissues; conditions: first daily 10 uM dose
Experimental: as §1
FIGS. 4G and 4H further illustrate that micro-tissues generated from mutant cells are excellent models of human diseases. Micro-tissues were generated within the dogbone-shaped microwells described herein from three different cell types: wild type MYPBC3^+/+ iPS, heterozygous MYPBC3^+/− iPS, and null MYPBC3^−/− iPS. […] However, upon repeated exposure to isoproterenol, the differences heterozygous and null MYPBC3 tissue responses became less significant (FIG. 4H).

[5] = tested on: wild type iPS-CM micro-tissues; assay: Beating (beat rate, contraction velocity) of wild type iPS-CM three-dimensional micro-tissues in stencil microwells, drug response
Experimental: as §1
Beginning five days after seeding cells into micro-tissue molds, the beating parameters of spontaneously beating (non-paced) iPS-CM micro-tissues were analyzed. […] Despite this difference, micro-tissues maintained in RPMI media with B27 supplement all beat at nearly the same rate (FIG. 4B). Micro-tissues incubated in StemPro 34 media beat with a slightly more variable rate from one tissue to the next, but at a basal rate closer to the physiological levels of 1 Hz for human cells (data not shown).

Compound: [Ca+2] [calcium]
- twitch force [1]: dramatically increases

Compound: CC(C)NCC(O)c1ccc(O)c(O)c1 (stereo not shown) [isoproterenol]
- beating frequency in response to isoproterenol (MYBPC3−/− micro-tissues; null MYPBC3−/− micro-tissues, first daily 10 uM dose): returned to a lower beating frequency significantly faster
- beat-rate (chronotropic response) (MYBPC3−/− micro-tissues; short-term (30 minutes) and chronic (5 days of daily dosing) exposure, 10 μm isoproterenol, compared with wild type): blunted decrease in beat-rate
- beat-rate response ([2]; 2D cultured iPS-CM monolayers, non-paced, 10 μm isoproterenol): erratic/unpredictable responses; also recorded: varies significantly from one test to the next; also recorded: large variance amongst samples
- intensity of beating (inotropic response) ([2]; 2D monolayers, 10 μm isoproterenol): did not affect the intensity of beating
- cessation of beating at high doses ([2]; 2D-cultured cells and cell clusters, high doses): stopped beating
- calcium flux response [3]: responded to isoproterenol
- beating frequency in response to isoproterenol [4]: less than the wild type MYPBC3 tissues but greater than the null MYPBC3 tissues
- beat-rate response ([5]; 3D micro-tissues, wild type iPS-CM, non-paced, 10 μm isoproterenol): highly reproducible; also recorded: robust increase in beat-rate response
- intensity of beating, measured via the maximum contraction velocity (inotropic response) ([5]; 3D micro-tissues, 10 μm isoproterenol): exhibit an inotropic response
- cessation of beating at high doses ([5]; 3D-cultured micro-tissues within stencil wells, high doses): no such effects were observed
- beating frequency in response to isoproterenol ([5]; wild type MYPBC3+/+ micro-tissues, first daily 10 uM dose): greatest increase in beating frequency

Compound: COc1ccc(CCN(C)CCCC(C#N)(c2ccc(OC)c(OC)c2)C(C)C)cc1OC (stereo not shown) [verapamil]
- IC50 value (beating) ([5]; stencil micro-tissues compared to the same cells in non-patterned 2D monolayers, 30 minutes per dose): higher IC50 value
